For the assay, the system named is L1210 leukemia ip in BDF1 mice, survival T/C. In words: NCI In Vivo Anticancer Drug Screen. Data for tumor model L1210 Leukemia (intraperitoneal) in B6D2F1 (BDF1) mice. The note with it: endpoint: mean survival time, higher = longer survival. Put shortly: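 Mice bearing the transplanted tumor received compound or vehicle. Survival of the treated group was divided by that of the vehicle-treated control group to give the ratio.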

Where [1] appears, read: dose: 25.0 mg/kg/injection, schedule: Q01DX009 (ip), vehicle: saline.
[2] abbreviates: dose: 100.0 mg/kg/injection, schedule: Q01DX001 (ip), vehicle: other.
The mark [3] stands for this setting: dose: 100.0 mg/kg/injection, schedule: Q04DX003 (ip), vehicle: Klucel (hydroxypropylcellulose) (HPC).
Where [4] appears, read: dose: 200.0 mg/kg/injection, schedule: Q01DX001 (ip), vehicle: other.
[5] abbreviates: dose: 200.0 mg/kg/injection, schedule: Q04DX003 (ip), vehicle: Klucel (hydroxypropylcellulose) (HPC).
Where [6] appears, read: dose: 400.0 mg/kg/injection, schedule: Q04DX003 (ip), vehicle: Klucel (hydroxypropylcellulose) (HPC).
Where [7] appears, read: dose: 100.0 mg/kg/injection, schedule: Q04DX003 (ip), vehicle: saline.
Setting [8] is: dose: 200.0 mg/kg/injection, schedule: Q04DX003 (ip), vehicle: saline.
The mark [9] stands for this setting: dose: 50.0 mg/kg/injection, schedule: Q01DX009 (ip), vehicle: saline.
The mark [10] stands for this setting: dose: 100.0 mg/kg/injection, schedule: Q01DX009 (ip), vehicle: saline.
Setting [11] is: dose: 200.0 mg/kg/injection, schedule: Q01DX009 (ip), vehicle: saline.

Consider 12 compounds from PubChem BioAssay AID248 (DTP/NCI, 2004).

Where “and” joins values, the source holds several entries; their conditions need not be identical. Equal values may be shown once. Toxic doses and inconclusive results are not listed.

Consider `C#CCn1cnc2c(=S)nc[nH]c21`, for which the T/C is, setting by setting: (dose: 10.0 mg/kg/injection, schedule: Q01DX009 (ip), vehicle: saline) 104 % of control; (dose: 15.0 mg/kg/injection, schedule: Q04DX003 (ip), vehicle: saline) 103 % of control; under setting [1], 114 % of control; (dose: 30.0 mg/kg/injection, schedule: Q04DX003 (ip), vehicle: saline) 111 % of control; (dose: 52.0 mg/kg/injection, schedule: Q04DX003 (ip), vehicle: Klucel (hydroxypropylcellulose) (HPC)) 110 % of control; (dose: 60.0 mg/kg/injection, schedule: Q04DX003 (ip), vehicle: saline) 111 % of control. In addition, the T/C by setting is: (dose: 78.0 mg/kg/injection, schedule: Q04DX003 (ip), vehicle: Klucel (hydroxypropylcellulose) (HPC)) 115 % of control; (dose: 90.0 mg/kg/injection, schedule: Q01DX009 (ip), vehicle: saline) 119 % of control; under setting [2], 104 % of control; under setting [3], 113 % of control; (dose: 118.0 mg/kg/injection, schedule: Q04DX003 (ip), vehicle: Klucel (hydroxypropylcellulose) (HPC)) 115 % of control; (dose: 175.0 mg/kg/injection, schedule: Q01DX009 (ip), vehicle: saline) 93 % of control. The T/C by setting is: (dose: 177.0 mg/kg/injection, schedule: Q01DX001 (ip), vehicle: Klucel (hydroxypropylcellulose) (HPC)) 108 % of control; (dose: 177.0 mg/kg/injection, schedule: Q04DX003 (ip), vehicle: Klucel (hydroxypropylcellulose) (HPC)) 155 % of control; (dose: 177.0 mg/kg/injection, schedule: Q04DX003 (ip), vehicle: saline) 150 % of control; under setting [4], 121 % of control; under setting [5], 124 % of control; (dose: 266.0 mg/kg/injection, schedule: Q04DX003 (ip), vehicle: Klucel (hydroxypropylcellulose) (HPC)) 162 % of control. In addition, the T/C by setting is: (dose: 266.0 mg/kg/injection, schedule: Q04DX003 (ip), vehicle: saline) 116 % of control; under setting [6], 157 % of control; (dose: 400.0 mg/kg/injection, schedule: Q04DX003 (ip), vehicle: saline) 114 % of control; (dose: 600.0 mg/kg/injection, schedule: Q01DX001 (ip), vehicle: Klucel (hydroxypropylcellulose) (HPC)) 152 % of control; (dose: 600.0 mg/kg/injection, schedule: Q01DX001 (ip), vehicle: other) 156 % of control; (dose: 600.0 mg/kg/injection, schedule: Q04DX003 (ip), vehicle: saline) 112 % of control.
With `C=C(Br)CNC(=O)OCC`, the T/C reads like this: (dose: 50.0 mg/kg/injection, schedule: Q04DX003 (ip), vehicle: saline) 96 % of control; under setting [7], 115 % of control; under setting [8], 107 % of control.
On to `c1ccc(C[N+]23CC[N+](Cc4ccccc4)(CC2)CC3)cc1`, for which the T/C was 107 % of control under setting [9]; 111 % of control under setting [10]; 97 % of control under setting [7]; 114 % of control under setting [11]; 100 % of control under setting [8].
For `[O-][N+](=Nc1ccc(Cl)cc1)c1ccc(Cl)cc1`, the T/C is 92 % of control (dose: 100.0 mg/kg/injection, schedule: Q01DX001 (ip), vehicle: gum acacia); 97 % of control (dose: 100.0 mg/kg/injection, schedule: Q04DX003 (ip), vehicle: gum acacia); 93 % of control (dose: 200.0 mg/kg/injection, schedule: Q01DX001 (ip), vehicle: gum acacia); 87 % of control (dose: 200.0 mg/kg/injection, schedule: Q04DX003 (ip), vehicle: gum acacia); 92 % of control (dose: 400.0 mg/kg/injection, schedule: Q01DX001 (ip), vehicle: gum acacia); 91 % of control (dose: 400.0 mg/kg/injection, schedule: Q04DX003 (ip), vehicle: gum acacia).
As to `O=C1O[C@@H]2[C@@H](I)[C@@H]3C[C@@H]2[C@@H]1C3`, the T/C was 91 % of control (dose: 5.0 mg/kg/injection, schedule: Q01DX001 (ip), vehicle: carboxymethylcellulose (CMC)); 93 % of control (dose: 10.0 mg/kg/injection, schedule: Q01DX001 (ip), vehicle: carboxymethylcellulose (CMC)); 94 % of control (dose: 20.0 mg/kg/injection, schedule: Q01DX001 (ip), vehicle: carboxymethylcellulose (CMC)); 91 % of control (dose: 40.0 mg/kg/injection, schedule: Q01DX001 (ip), vehicle: carboxymethylcellulose (CMC)); 93 % of control (dose: 80.0 mg/kg/injection, schedule: Q01DX001 (ip), vehicle: carboxymethylcellulose (CMC)).
Consider `CCCCCCNCCC[P+](c1ccccc1)(c1ccccc1)c1ccccc1`, for which the T/C runs as follows: (dose: 12.5 mg/kg/injection, schedule: Q04DX002 (ip), vehicle: saline) 91 % of control; (dose: 25.0 mg/kg/injection, schedule: Q04DX002 (ip), vehicle: saline) 98 % of control; (dose: 50.0 mg/kg/injection, schedule: Q04DX002 (ip), vehicle: saline) 98 % of control.
For `C[n+]1ccccc1/C=N/O`, the T/C is 105 % of control under setting [1]; 100 % of control (dose: 33.0 mg/kg/injection, schedule: Q01DX009 (ip), vehicle: saline); 98 % of control under setting [9]; 102 % of control (dose: 75.0 mg/kg/injection, schedule: Q01DX009 (ip), vehicle: Klucel (hydroxypropylcellulose) (HPC)); 98 % of control (dose: 75.0 mg/kg/injection, schedule: Q01DX009 (ip), vehicle: saline); 91 % of control (dose: 75.0 mg/kg/injection, schedule: Q04DX003 (ip), vehicle: saline). For the same compound, the T/C was 100 % of control and 103 % of control under setting [10]; 103 % of control under setting [7]; 108 % of control (dose: 150.0 mg/kg/injection, schedule: Q01DX009 (ip), vehicle: Klucel (hydroxypropylcellulose) (HPC)); 109 % of control (dose: 150.0 mg/kg/injection, schedule: Q04DX003 (ip), vehicle: saline); 97 % of control under setting [11]; 94 % of control under setting [8]. The T/C (dose: 300.0 mg/kg/injection, schedule: Q04DX003 (ip), vehicle: saline) is 98 % of control.
Take `CSc1cc(N)cc(C(=O)O)c1O`: the T/C runs as follows: (dose: 100.0 mg/kg/injection, schedule: Q01DX009 (ip), vehicle: saline with Tween-80) 92 % of control; (dose: 200.0 mg/kg/injection, schedule: Q01DX009 (ip), vehicle: saline with Tween-80) 89 % of control; (dose: 400.0 mg/kg/injection, schedule: Q01DX009 (ip), vehicle: saline with Tween-80) 88 % of control.
With `O=[N+]([O-])c1ccc(Oc2cc(Cl)c(Cl)cc2Cl)c([N+](=O)[O-])c1`, the T/C was 90 % of control under setting [2]; 98 % of control (dose: 100.0 mg/kg/injection, schedule: Q04DX003 (ip), vehicle: other); 92 % of control under setting [4]; 95 % of control (dose: 200.0 mg/kg/injection, schedule: Q04DX003 (ip), vehicle: other); 100 % of control (dose: 222.0 mg/kg/injection, schedule: Q01DX Z (ip), vehicle: methylcellulose (MC)); 91 % of control (dose: 333.0 mg/kg/injection, schedule: Q01DX Z (ip), vehicle: methylcellulose (MC)). In addition, the T/C (dose: 400.0 mg/kg/injection, schedule: Q01DX001 (ip), vehicle: other) was 89 % of control and 91 % of control; the T/C (dose: 400.0 mg/kg/injection, schedule: Q04DX003 (ip), vehicle: other) was 95 % of control; the T/C (dose: 500.0 mg/kg/injection, schedule: Q01DX Z (ip), vehicle: methylcellulose (MC)) was 91 % of control.
For `ClCCCN1c2ccccc2CCc2ccccc21`, the T/C (dose: 100.0 mg/kg/injection, schedule: Q04DX003 (ip), vehicle: acetone) was 100 % of control; the T/C (dose: 200.0 mg/kg/injection, schedule: Q04DX003 (ip), vehicle: acetone) was 100 % of control; the T/C (dose: 400.0 mg/kg/injection, schedule: Q04DX003 (ip), vehicle: acetone) is 103 % of control.
For the compound `O=C(CBr)NC(Cc1ccccc1)C(=O)O` (stereo not given), the T/C reads like this: (dose: 75.0 mg/kg/injection, schedule: Q01DX001 (ip), vehicle: saline) 94 % of control and 90 % of control; (dose: 150.0 mg/kg/injection, schedule: Q01DX001 (ip), vehicle: saline) 103 % of control; (dose: 300.0 mg/kg/injection, schedule: Q01DX001 (ip), vehicle: saline) 90 % of control.
With `O=c1[nH]c2ccccc2nc1C(Br)Br`, the T/C was 97 % of control under setting [3], 105 % of control under setting [5] and 97 % of control under setting [6].
